Test results reported in US8354414B2, “Substituted bicyclic pyrimidines” (Cephalon, Inc, priority 2006, dated 2013).
Where a name gives a salt, the structure may show the parent alone.

Key:
[1] = molecular target: T1, CDK5/GST-p25 (Homo sapiens, UniProt Q00535); experiment: Inhibition of CDK5/GST-p25 kinase activity (ELISA with time-resolved fluorescence readout); type: biochemical; conditions: class symbols
T1 construct: The final construct, encoding for full-length human CDK5; made in house; host or cells: Sf21 insect cells (baculovirus co-infection)
Experimental: Two recombinant baculoviral constructs were created, one encoding for human CDK5 and the other encoding for human p25 with an amino-terminal glutathione-S-transferase (GST) tag. PCR amplification of full-length CDK5 was performed utilizing human brain cDNA as a template and Pfu Turbo polymerase (Strategene). The PCR product from this reaction was subcloned into the baculoviral expression vector pFASTBAC1 (Gibco/BRL). The final construct, encoding for full-length human CDK5 (base pairs 25-903 of GenBank Accession #NM_004935), is 292 amino acids long with a predicted MW of 33.3 kDa.
For p25, the active truncated form of p35, amino acids 108-307 were PCR-amplified from human fetal brain cDNA (Clontech QUICK-Clone cDNA) using the Advantage 2 PCR system (Clontech). The PCR product was subcloned into the baculoviral transfer vector pFBGSTP (an engineered derivative of the baculoviral transfer vector pFASTBAC1). The final baculoviral construct encodes for base pairs 419-1021 of GenBank Accession #NM_003885, with an amino-terminal GST tag. The expressed GST-p25 is 444 amino acids long with a predicted MW of 50.3 kDa.
The CDK5/GST-p25 complex was generated by coexpression. Sf21 cells were cultured in TNM-FHS media at a density of 1.5×10^6 cells/mL and infected with each recombinant virus at MOI values of 5 (for CDK5) and 10 (for GST-p25). The cells were harvested 40 h after infection. For purification, the 100,000×g supernatant solution was used. Expression was confirmed by running samples on SDS-PAGE, followed by immunoblot analysis utilizing antibodies against CDK5 (anti-CDK5 (268-283); Calbiochem #219449) and p35 (Santa Cruz #sc820). The CDK5/GST-p25 complex was purified by glutathione affinity chromatography.
Compounds were tested for their ability to inhibit the kinase activity of recombinant baculoviral CDK5/GST-p25 using an enzyme-linked immunosorbent assay (ELISA) with time-resolved fluorescence (TRF) readout. Briefly, each 384-well FluoroNunc Maxisorp plate (Cat # 460372) plate was coated with 50 μl/well of 50 μg/ml substrate solution (recombinant GST-Rb(773-928)) in Tris-buffered saline (TBS). The CDK5/GST-p25 assay mixture (total volume=50 μl/well) consisting of 20 mM HEPES (pH 7.2), 10 μM ATP, 10 mM MgCl2, 5 mM EGTA, 25 mM β-glycerophosphate, 0.05% BSA, 2.5% DMSO, and various concentrations of test compound were then added to the assay plate. Enzyme (2 ng/ml CDK5/GST-p25) was added and the reaction was allowed to proceed at 37° C. for 20 minutes. Detection of the phosphorylated product was performed by adding 50 μl/well of phospho-Rb (Ser-780) antibody (Cell Signaling # 9307) diluted 1:10,000 in antibody dilution buffer (0.1% BSA in TBST). After 1-hour incubation at 37° C., 50 μl/well of Eu-Nl labelled anti-rabbit antibody (Wallac # AD0105; 1:50,000 in antibody dilution buffer) was added. Incubation at 37° C. then proceeded for 1 hour, followed by addition of 50 μl enhancement solution (Wallac #1244-105). The plate was gently agitated and after a few minutes, the fluorescence of the resulting solution was measured using a Multilabel Reader (Victor2 Model # 1420-018 or Envision Model # 2100). Inhibition data were analyzed using ActivityBase and IC50 curves were generated using XLFit 3.0.5.

[2] = molecular target: T2, His6-GSK-3β (Homo sapiens, UniProt P49841); experiment: Inhibition of His6-GSK-3β kinase activity (ELISA-based format, time-resolved fluorescence readout); type: biochemical; conditions: class symbols; read-out: GSK3β IC50
T2 construct: made in house; host or cells: Sf21 insect cells (baculovirus)
Description: Full-length GSK-3β was amplified from a sequence-verified I.M.A.G.E. EST acquired from Research Genetics (Invitrogen, Clone ID# CSODB003YJ02). The final sequence-verified cDNA contained the coding region for a NH2-terminal tag, which encoded for 6 histidines and then eight vector-encoded amino acids prior to the start of GSK3β, which contained by # 43-1342 of Genbank Accession # NM_002093, encoding amino acids #2-419. The predicted molecular weight of the tagged, 435 amino acid, full-length protein is 48.5 kDa. The major structural element of this protein is the kinase domain, which is from amino acids #56-340. Recombinant baculoviral DNA was prepared by transposition in E. coli (BAC-TO-BAC system: Invitrogen) and the virus generated and amplified in Sf21 insect cells. A suspension culture of Sf21 cells was infected at an MOI of 0.7 and cell density of 1.5×10^6 cells/mL in Excell 420 serum-free media (JRH BioScience) and harvested 65 h after infection. The 100,000×g supernatant solution was used for purification. Expression was confirmed by running samples on SDS-PAGE, followed by immunoblot analysis utilizing both a Penta-HIS antibody (Qiagen #34660) and a GSK-3α/GSK-3β antibody (Calbiochem #368662, data not shown). The His6-tagged protein was purified to in one step by Ni-NTA affinity chromatography.
Inhibitory effects of compounds on baculoviral GSK-3β kinase activity were evaluated using an ELISA-based format in a 384-well FluoroNunc Maxisorp plate (Cat # 460372) with a time-resolved fluorescence readout. Briefly, each plate was coated with 50 μl/well of 20 μg/ml substrate solution (recombinant GST-Rb) in Tris-buffered saline (TBS). The GSK-3β assay mixture (total volume=50 μl/well) consisting of 50 mM HEPES (pH 7.2), 20 μM ATP, 10 mM MgCl2, 5 mM EGTA, 25 mM β-glycerophosphate, 0.05% BSA, 2.5% DMSO, and various concentrations of test compound were then added to the assay plate. Enzyme (200 ng/ml His6-GSK-3β) was then added and the reaction was allowed to proceed at 37° C. for 30 minutes. Detection of the phosphorylated product was performed by adding 50 μl/well of phospho-Rb (Ser-780) antibody (Cell Signaling # 9307) diluted 1:10,000 in antibody dilution buffer (0.1% BSA in TBST). After 1-hour incubation at 37° C., 50 μl/well of Eu-N1 labelled anti-rabbit antibody (Wallac # AD0105; 1:50,000 in antibody dilution buffer) was added. Incubation at 37° C. then proceeded for 1 hour, followed by addition of 50 μl enhancement solution (Wallac #1244-105). The plate was gently agitated and after a few minutes, the fluorescence of the resulting solution was measured using a Multilabel Reader (Victor2 Model # 1420-018 or Envision Model 2100). Inhibition data were analyzed using ActivityBase and IC50 curves were generated using XLFit 3.0.5.

T2 sequence (P49841 2-419): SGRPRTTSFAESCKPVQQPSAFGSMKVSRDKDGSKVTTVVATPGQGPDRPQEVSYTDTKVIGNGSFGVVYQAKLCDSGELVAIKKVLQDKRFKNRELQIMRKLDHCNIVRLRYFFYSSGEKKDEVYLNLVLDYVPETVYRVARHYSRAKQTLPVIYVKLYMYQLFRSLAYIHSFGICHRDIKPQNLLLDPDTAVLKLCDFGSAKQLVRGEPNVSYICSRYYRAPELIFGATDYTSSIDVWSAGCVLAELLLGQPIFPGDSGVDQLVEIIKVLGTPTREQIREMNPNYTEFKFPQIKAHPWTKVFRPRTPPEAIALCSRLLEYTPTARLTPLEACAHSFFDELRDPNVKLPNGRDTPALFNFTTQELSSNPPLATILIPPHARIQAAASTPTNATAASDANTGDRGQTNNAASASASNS
T1 sequence (Q00535 whole entry): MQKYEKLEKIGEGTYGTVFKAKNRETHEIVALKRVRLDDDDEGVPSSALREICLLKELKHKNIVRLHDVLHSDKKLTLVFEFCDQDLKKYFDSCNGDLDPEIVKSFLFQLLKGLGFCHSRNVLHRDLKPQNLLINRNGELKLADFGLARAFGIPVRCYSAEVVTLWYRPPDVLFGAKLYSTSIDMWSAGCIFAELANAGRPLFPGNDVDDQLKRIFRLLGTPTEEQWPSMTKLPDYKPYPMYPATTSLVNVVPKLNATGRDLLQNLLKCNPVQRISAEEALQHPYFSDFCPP
T1 sequence (Q15078 108-307 partner limits assumed): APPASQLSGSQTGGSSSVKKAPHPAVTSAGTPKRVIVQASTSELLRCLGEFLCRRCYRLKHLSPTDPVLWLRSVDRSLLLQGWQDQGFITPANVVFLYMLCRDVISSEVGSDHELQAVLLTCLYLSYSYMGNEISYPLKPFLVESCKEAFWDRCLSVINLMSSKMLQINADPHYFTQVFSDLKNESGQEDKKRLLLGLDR

SMILES	IC50 [1]	IC50 [2]
O=C1Nc2ccc(Cl)cc2C1c1nc(NCc2ccc(Cl)nc2)nc2c1CCC2 (stereo not drawn) [Example 328, 5-Chloro-3-{2-[(6-chloro-pyridin-3-ylmethyl)-amino]-6,7-dihydro-5H-cyclopentapyrimidin-4-yl}-1,3-dihydro-indol-2-one]	> 10 µM	> 10 µM
CN(C)CCN(C)c1nc(C2C(=O)Nc3ccc(Cl)cc32)c2cn(C3CCCC3)nc2n1 (stereo not drawn) [Example 140, 5-Chloro-3-{2-cyclopentyl-6-[(2-dimethylamino-ethyl)-methyl-amino]-2H-pyrazolo[3,4-d]pyrimidin-4-yl}-1,3-dihydro-indol-2-one]	> 10 µM	< 0.3 µM
N#Cc1ccc2c(c1)C(c1nc(N3CCN(CCc4cccs4)CC3)nc3nn(C4CCCC4)cc13)C(=O)N2 (stereo not drawn) [Example 130, 3-{2-cyclopentyl-6-[4-(2-thiophen-2-yl-ethyl)-piperazin-1-yl]-2H-pyrazolo[3,4-d]pyrimidin-4-yl}-2-oxo-2,3-dihydro-1H-indole-5-carbonitrile]	> 10 µM	< 0.3 µM
N#Cc1ccc2c(c1)C(c1nc(Nc3ccc(F)nc3)nc3c1CCC3)C(=O)N2 (stereo not drawn) [Example 351, 3-[2-(6-Fluoro-pyridin-3-ylamino)-6,7-dihydro-5H-cyclopentapyrimidin-4-yl]-2-oxo-2,3-dihydro-1H-indole-5-carbonitrile]	> 10 µM	> 10 µM
CCCOCCNc1nc2c(c(C3C(=O)Nc4ccc(Br)cc43)n1)CCC2 (stereo not drawn) [Example 333, 5-Bromo-3-[2-(2-propoxy-ethylamino)-6,7-dihydro-5H-cyclopentapyrimidin-4-yl]-1,3-dihydro-indol-2-one]	> 10 µM	> 10 µM

Continued, values first:

IC50 [1]	IC50 [2]	SMILES
> 10 µM	< 0.3 µM	N#Cc1ccc2c(c1)C(c1nc(Nc3cccnc3)nc3nn(C4CCCC4)cc13)C(=O)N2 (stereo not drawn) [Example 169, 3-[2-Cyclopentyl-6-(pyridin-3-ylamino)-2H-pyrazolo [3,4-d]pyrimidin-4-yl]-2-oxo-2,3-dihydro-1H-indole-5-carbonitrile]
> 10 µM	< 0.3 µM	N#Cc1ccc2c(c1)C(c1nc(NCCc3ccccn3)nc3nn(C4CCCC4)cc13)C(=O)N2 (stereo not drawn) [Example 125, 3-[2-cyclopentyl-6-(2-pyridin-2-yl-ethylamino)-2H-pyrazolo [3,4-d]pyrimidin-4-yl]-2-oxo-2,3-dihydro-1H-indole-5-carbonitrile]
> 10 µM	> 10 µM	CCOCCNc1nc2c(c(C3C(=O)Nc4ccc(F)cc43)n1)CCC2 (stereo not drawn) [Example 319, 3-[2-(2-Ethoxy-ethylamino)-6,7-dihydro-5H-cyclopentapyrimidin-4-yl]-5-fluoro-1,3-dihydro-indol-2-one]
< 0.3 µM	< 0.3 µM	CCCn1cc2c(C3C(=O)Nc4ccc(Br)cc43)nc(NCCCNC)nc2n1 (stereo not drawn) [Example 201, 5-Bromo-3-[6-(3-methylamino-propylamino)-2-propyl-2H-pyrazolo [3,4-d]pyrimidin-4-yl]-1,3-dihydro-indol-2-one hydrochloride]
0.3 to 3 µM	< 0.3 µM	CN(C)CCCNc1nc(C2C(=O)Nc3ccc(C#N)cc32)c2cn(C3CCCC3)nc2n1 (stereo not drawn) [Example 138, 3-[2-cyclopentyl-6-(3-dimethylamino-propylamino)-2H-pyrazolo[3,4-d]pyrimidin-4-yl]-2-oxo-2,3-dihydro-1H-indole-5-carbonitrile]
< 0.3 µM	< 0.3 µM	Cn1cc2c(C3C(=O)Nc4ccc(Br)cc43)nc(NCc3ccncc3)nc2n1 (stereo not drawn) [Example 302, 5-Bromo-3-{2-methyl-6-[(pyridin-4-ylmethyl)-amino]-2H-pyrazolo[3,4-d]pyrimidin-4-yl}-1,3-dihydro-indol-2-one]
0.3 to 3 µM	< 0.3 µM	CCCn1cc2c(C3C(=O)Nc4ccc(Br)cc43)nc(NCCNC)nc2n1 (stereo not drawn) [Example 365, 5-Bromo-3-[6-(2-methylamino-ethylamino)-2-propyl-2H-pyrazolo [3,4-d]pyrimidin-4-yl]-1,3-dihydro-indol-2-one hydrochloride salt]
